Source: ChEMBL document CHEMBL4152384, “Pyrtriazoles, a Novel Class of Store-Operated Calcium Entry Modulators: Discovery, Biological Profiling, and in Vivo Proof-of-Concept Efficacy in Acute Pancreatitis” (J Med Chem, 2018)

target: Short transient receptor potential channel 1 & 3/Stromal interaction molecule 1/Calcium release-activated calcium channel protein 1 (Homo sapiens) (UniProt Q96D31+Q13507+Q13586+P48995); experiment: (§1) Modulation of TRPC1/TRPC3/STIM1/Orai1 in HEK cells assessed as induction of store-operated calcium entry by measuring residual activity at 10 uM preincubated for 30 mins followed by tBhQ-mediated Ca2+ depletion and Ca2+ re-addition to extracellular solution measured for 600 secs by Fluo-4 AM-based fluorometric assay relative to control; type: cell-based
Sequence (P48995 whole entry partner): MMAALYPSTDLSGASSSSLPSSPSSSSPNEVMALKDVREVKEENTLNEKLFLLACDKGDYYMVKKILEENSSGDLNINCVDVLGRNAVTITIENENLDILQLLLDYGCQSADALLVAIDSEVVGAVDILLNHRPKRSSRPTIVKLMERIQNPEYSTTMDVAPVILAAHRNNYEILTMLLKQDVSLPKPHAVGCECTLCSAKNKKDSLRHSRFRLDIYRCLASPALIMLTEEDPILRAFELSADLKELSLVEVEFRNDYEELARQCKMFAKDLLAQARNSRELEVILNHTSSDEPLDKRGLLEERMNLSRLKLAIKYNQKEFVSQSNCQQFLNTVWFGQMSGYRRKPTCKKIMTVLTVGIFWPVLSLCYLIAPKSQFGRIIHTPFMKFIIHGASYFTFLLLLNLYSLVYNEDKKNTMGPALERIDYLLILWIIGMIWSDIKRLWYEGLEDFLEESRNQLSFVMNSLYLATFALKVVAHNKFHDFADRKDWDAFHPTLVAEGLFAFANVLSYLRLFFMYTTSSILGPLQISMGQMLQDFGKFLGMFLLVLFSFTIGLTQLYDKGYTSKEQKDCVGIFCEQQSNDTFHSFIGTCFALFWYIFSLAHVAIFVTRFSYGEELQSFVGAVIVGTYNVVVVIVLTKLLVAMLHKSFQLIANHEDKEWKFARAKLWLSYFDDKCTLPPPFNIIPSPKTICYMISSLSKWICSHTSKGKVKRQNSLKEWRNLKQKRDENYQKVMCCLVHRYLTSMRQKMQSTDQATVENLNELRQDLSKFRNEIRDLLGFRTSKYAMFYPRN
Sequence (Q13507 whole entry partner): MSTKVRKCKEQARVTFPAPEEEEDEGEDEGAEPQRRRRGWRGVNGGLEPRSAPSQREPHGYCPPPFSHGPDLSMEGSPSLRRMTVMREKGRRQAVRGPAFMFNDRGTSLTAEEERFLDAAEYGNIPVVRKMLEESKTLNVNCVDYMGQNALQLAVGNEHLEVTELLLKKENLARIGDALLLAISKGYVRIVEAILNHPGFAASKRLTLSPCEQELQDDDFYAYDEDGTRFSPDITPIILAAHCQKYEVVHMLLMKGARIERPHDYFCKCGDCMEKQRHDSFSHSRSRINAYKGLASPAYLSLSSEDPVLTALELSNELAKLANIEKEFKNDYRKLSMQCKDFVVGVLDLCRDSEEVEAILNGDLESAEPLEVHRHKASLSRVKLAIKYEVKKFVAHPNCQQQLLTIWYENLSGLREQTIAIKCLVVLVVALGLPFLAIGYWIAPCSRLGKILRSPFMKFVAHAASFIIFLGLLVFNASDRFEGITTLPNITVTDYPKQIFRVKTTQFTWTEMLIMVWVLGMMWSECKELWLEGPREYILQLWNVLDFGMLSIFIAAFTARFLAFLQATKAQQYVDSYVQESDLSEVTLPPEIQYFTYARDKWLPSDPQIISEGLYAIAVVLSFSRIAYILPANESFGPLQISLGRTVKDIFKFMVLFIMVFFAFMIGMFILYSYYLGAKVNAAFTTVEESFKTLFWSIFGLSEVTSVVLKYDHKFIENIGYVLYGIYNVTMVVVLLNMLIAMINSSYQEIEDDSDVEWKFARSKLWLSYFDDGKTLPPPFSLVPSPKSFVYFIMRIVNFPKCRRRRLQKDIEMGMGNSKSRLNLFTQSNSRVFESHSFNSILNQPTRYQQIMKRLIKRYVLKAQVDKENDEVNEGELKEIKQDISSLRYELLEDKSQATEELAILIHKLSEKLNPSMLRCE
Sequence (Q13586 23-685 partner limits assumed): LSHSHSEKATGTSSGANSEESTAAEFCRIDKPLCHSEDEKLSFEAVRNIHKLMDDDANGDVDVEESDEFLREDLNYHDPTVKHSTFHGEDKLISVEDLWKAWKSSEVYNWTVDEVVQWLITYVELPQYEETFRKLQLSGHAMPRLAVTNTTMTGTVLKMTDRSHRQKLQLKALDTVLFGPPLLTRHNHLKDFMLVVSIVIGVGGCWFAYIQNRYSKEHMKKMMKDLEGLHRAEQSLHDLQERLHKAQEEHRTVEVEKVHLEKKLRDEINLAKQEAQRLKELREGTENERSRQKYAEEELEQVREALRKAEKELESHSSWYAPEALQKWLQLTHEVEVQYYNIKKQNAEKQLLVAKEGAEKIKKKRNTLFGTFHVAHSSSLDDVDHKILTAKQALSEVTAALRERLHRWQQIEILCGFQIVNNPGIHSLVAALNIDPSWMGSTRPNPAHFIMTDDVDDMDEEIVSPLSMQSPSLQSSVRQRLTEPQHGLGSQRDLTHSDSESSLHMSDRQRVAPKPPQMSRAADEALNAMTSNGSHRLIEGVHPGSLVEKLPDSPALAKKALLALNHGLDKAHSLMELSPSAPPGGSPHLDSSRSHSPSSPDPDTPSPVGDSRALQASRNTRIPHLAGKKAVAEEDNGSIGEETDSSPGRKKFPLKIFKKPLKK
Sequence (Q96D31 whole entry): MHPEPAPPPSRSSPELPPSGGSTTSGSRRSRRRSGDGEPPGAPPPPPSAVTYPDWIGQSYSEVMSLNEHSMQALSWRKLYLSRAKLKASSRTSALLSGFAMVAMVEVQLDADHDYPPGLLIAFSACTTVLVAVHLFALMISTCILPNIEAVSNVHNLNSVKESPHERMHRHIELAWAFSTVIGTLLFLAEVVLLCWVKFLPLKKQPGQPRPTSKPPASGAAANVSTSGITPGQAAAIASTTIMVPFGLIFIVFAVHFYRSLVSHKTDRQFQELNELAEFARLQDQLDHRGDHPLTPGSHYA

Activity [%]	Structure (SMILES)
> 90	O=C(O)c1cccc(-c2cn(-c3ccc(-n4ncc(C(=O)O)c4C(F)(F)F)cc3)nn2)c1
> 90	CC(C)NC(=O)c1cnn(-c2ccc(-n3cc(-c4cccc(C(=O)O)c4)nn3)cc2)c1C(F)(F)F
> 90	O=C(O)c1cccc(-c2cn(-c3ccc(-n4ncc(CO)c4C(F)(F)F)cc3)nn2)c1
> 90	CC(C)=CCC/C(C)=C/COC(=O)c1cnn(-c2ccc(-n3cc(-c4cccc(C(=O)O)c4)nn3)cc2)c1C(F)(F)F
> 90	CCOC(=O)c1cnn(-c2ccc(-n3cc(-c4cccc(C(=O)NS(C)(=O)=O)c4)nn3)cc2)c1C(F)(F)F
> 90	CCOC(=O)c1cnn(-c2ccc(-c3cn(-c4cccc(C(C)=O)c4)nn3)cc2)c1C(F)(F)F
> 90	CC(C)CCOC(=O)c1cnn(-c2ccc(-n3cc(-c4cccc(C(=O)O)c4)nn3)cc2)c1C(F)(F)F
83.6	CCOC(=O)c1cnn(-c2ccc(-n3cc(-c4cccc(S(N)(=O)=O)c4)nn3)cc2)c1C(F)(F)F
> 90	NC(=O)c1cnn(-c2ccc(-n3cc(-c4cccc(C(=O)O)c4)nn3)cc2)c1C(F)(F)F
72.1	CCOC(=O)c1cnn(-c2ccc(-n3cc(-c4cccc(C(N)=O)c4)nn3)cc2)c1C(F)(F)F
> 90	CCOC(=O)c1cnn(-c2ccc(-n3nncc3-c3cccc(C(=O)O)c3)cc2)c1C(F)(F)F
> 90	O=C(O)c1cccc(-c2cn(-c3ccc(-n4ncc(C(=O)OCCN5CCOCC5)c4C(F)(F)F)cc3)nn2)c1
> 90	CCOC(=O)c1cnn(-c2ccc(-c3cn(-c4cccc(CO)c4)nn3)cc2)c1C(F)(F)F
> 90	CCOC(=O)c1cnn(-c2ccc(C(=O)Nc3cccc(C(=O)O)c3)cc2)c1C(F)(F)F
> 90	CCOC(=O)c1cnn(-c2ccc(-n3cc(-c4cccc(C(=O)OC)c4)nn3)cc2)c1C(F)(F)F
> 90	O=C(O)c1cccc(-c2cn(-c3ccc(-n4ncc(C(=O)OCc5ccncc5)c4C(F)(F)F)cc3)nn2)c1

target: Stromal interaction molecule 1 & 2/Calcium release-activated calcium channel protein 1 (Mus musculus) (UniProt Q8BWG9+P70302+P83093); experiment: as §1, with “STIM1/STIM2/Orai1” for “TRPC1/TRPC3/STIM1/Orai1”, “mouse BV2” for “HEK”; type: cell-based

Structure (SMILES)	Activity [%]
Nc1ccc(-c2cn(-c3ccc(-n4nc(C(F)(F)F)cc4C(F)(F)F)cc3)nn2)cc1	98.1
CC(=O)Nc1cccc(-n2cc(-c3ccc(-n4nc(C(F)(F)F)cc4C(F)(F)F)cc3)nn2)c1	101
COc1ccc(-c2cn(-c3ccc(-n4nc(C(F)(F)F)cc4C(F)(F)F)cc3)nn2)cc1OC	109
Fc1cnccc1-c1cn(-c2ccc(-n3nc(C(F)(F)F)cc3C(F)(F)F)cc2)nn1	90.2
COc1cccc(-n2cc(-c3ccc(-n4nc(C(F)(F)F)cc4C(F)(F)F)cc3)nn2)c1	113
COc1cc(-c2cn(-c3ccc(-n4nc(C(F)(F)F)cc4C(F)(F)F)cc3)nn2)ccc1O	80.5
FC(F)(F)c1cc(C(F)(F)F)n(-c2ccc(-c3cn(-c4cccnc4)nn3)cc2)n1	77
COc1cc(OC)cc(-n2cc(-c3ccc(-n4nc(C(F)(F)F)cc4C(F)(F)F)cc3)nn2)c1	93.7
COc1cc(OC)cc(-c2cn(-c3ccc(-n4nc(C(F)(F)F)cc4C(F)(F)F)cc3)nn2)c1	75.2
Fc1cnccc1-n1cc(-c2ccc(-n3nc(C(F)(F)F)cc3C(F)(F)F)cc2)nn1	106
O=C(O)CCCc1cn(-c2ccc(-n3nc(C(F)(F)F)cc3C(F)(F)F)cc2)nn1	80.1
O=C(O)CCCn1cc(-c2ccc(-n3nc(C(F)(F)F)cc3C(F)(F)F)cc2)nn1	81.7
Nc1ccc(-n2cc(-c3ccc(-n4nc(C(F)(F)F)cc4C(F)(F)F)cc3)nn2)cc1	90.2
Oc1cccc(-n2cc(-c3ccc(-n4nc(C(F)(F)F)cc4C(F)(F)F)cc3)nn2)c1	105
CC(=O)Nc1ccc(-n2cc(-c3ccc(-n4nc(C(F)(F)F)cc4C(F)(F)F)cc3)nn2)cc1	98.8
O=C(O)c1cccc(-n2cc(-c3ccc(-n4nc(C(F)(F)F)cc4C(F)(F)F)cc3)nn2)c1	80.2
COc1ccc(-n2cc(-c3ccc(-n4nc(C(F)(F)F)cc4C(F)(F)F)cc3)nn2)cc1	78.7
FC(F)(F)c1cc(C(F)(F)F)n(-c2ccc(-n3cc(-c4ccncc4)nn3)cc2)n1	94.7

Structure (SMILES)	Activity [%]
FC(F)(F)c1cc(C(F)(F)F)n(-c2ccc(-n3cc(-c4ccccc4)nn3)cc2)n1	99.2
Oc1cccc(-c2cn(-c3ccc(-n4nc(C(F)(F)F)cc4C(F)(F)F)cc3)nn2)c1	95.9
FC(F)(F)c1cc(C(F)(F)F)n(-c2ccc(-n3cc(-c4cccnc4)nn3)cc2)n1	87.8
CC(=O)Nc1ccccc1-c1cn(-c2ccc(-n3nc(C(F)(F)F)cc3C(F)(F)F)cc2)nn1	93.2
COc1cccc(-c2cn(-c3ccc(-n4nc(C(F)(F)F)cc4C(F)(F)F)cc3)nn2)c1	105
Nc1cccc(-n2cc(-c3ccc(-n4nc(C(F)(F)F)cc4C(F)(F)F)cc3)nn2)c1	85.6
FC(F)(F)c1cc(C(F)(F)F)n(-c2ccc(-c3cn(-c4ccc(Cl)cc4)nn3)cc2)n1	116
FC(F)(F)c1cc(C(F)(F)F)n(-c2ccc(-n3cc(-c4ccc(Oc5ccccc5)cc4)nn3)cc2)n1	73.5
FC(F)(F)c1cc(C(F)(F)F)n(-c2ccc(-n3cc(-c4ccc(Cl)cc4)nn3)cc2)n1	106
FC(F)(F)c1cc(C(F)(F)F)n(-c2ccc(-c3cn(-c4ccc(Oc5ccccc5)cc4)nn3)cc2)n1	90.2
Nc1cccc(-c2cn(-c3ccc(-n4nc(C(F)(F)F)cc4C(F)(F)F)cc3)nn2)c1	103
CC(=O)Nc1cccc(-c2cn(-c3ccc(-n4nc(C(F)(F)F)cc4C(F)(F)F)cc3)nn2)c1	98.1
CC(=O)Nc1ccc(-c2cn(-c3ccc(-n4nc(C(F)(F)F)cc4C(F)(F)F)cc3)nn2)cc1	98.5
COc1ccc(-c2cn(-c3ccc(-n4nc(C(F)(F)F)cc4C(F)(F)F)cc3)nn2)cc1	99.6
FC(F)(F)c1cc(C(F)(F)F)n(-c2ccc(-c3cn(-c4ccccc4)nn3)cc2)n1	99.7
FC(F)(F)c1cc(C(F)(F)F)n(-c2ccc(-c3cn(-c4ccncc4)nn3)cc2)n1	84
COc1ccc(-n2cc(-c3ccc(-n4nc(C(F)(F)F)cc4C(F)(F)F)cc3)nn2)cc1OC	94.3
FC(F)(F)c1cc(C(F)(F)F)n(-c2ccc(-c3cn(-c4ccccn4)nn3)cc2)n1	88.8

Now from value to compound:

Activity [%]	Structure (SMILES)
86.1	CCOC(=O)c1cnn(-c2ccc(-n3cc(-c4ccccc4)nn3)cc2)c1C(F)(F)F
96.5	CCOC(=O)c1cnn(-c2ccc(-n3cc(-c4cccc(O)c4)nn3)cc2)c1C(F)(F)F
79.8	CCOC(=O)c1cnn(-c2ccc(-c3cn(-c4ccncc4)nn3)cc2)c1C(F)(F)F
83.8	CCOC(=O)c1cnn(-c2ccc(-n3cc(-c4ccc(Oc5ccccc5)cc4)nn3)cc2)c1C(F)(F)F
88.6	CCOC(=O)c1cnn(-c2ccc(-n3cc(-c4ccc(Cl)cc4)nn3)cc2)c1C(F)(F)F
117	CCOC(=O)c1cnn(-c2ccc(-c3cn(-c4cccc(OC)c4)nn3)cc2)c1C(F)(F)F
91.6	CCOC(=O)c1cnn(-c2ccc(-n3cc(-c4cccnc4)nn3)cc2)c1C(F)(F)F
97.5	CCOC(=O)c1cnn(-c2ccc(-c3cn(-c4ccccc4)nn3)cc2)c1C(F)(F)F
113	CCOC(=O)c1cnn(-c2ccc(-c3cn(-c4ccc(OC)c(OC)c4)nn3)cc2)c1C(F)(F)F
81	CCOC(=O)c1cnn(-c2ccc(-n3cc(-c4ccccn4)nn3)cc2)c1C(F)(F)F
99.4	CCOC(=O)c1cnn(-c2ccc(-n3cc(-c4cc(OC)cc(OC)c4)nn3)cc2)c1C(F)(F)F
72	CCOC(=O)c1cnn(-c2ccc(-n3cc(-c4ccccc4NC(C)=O)nn3)cc2)c1C(F)(F)F
106	CCOC(=O)c1cnn(-c2ccc(-n3cc(-c4ccc(NC(C)=O)cc4)nn3)cc2)c1C(F)(F)F
105	CCOC(=O)c1cnn(-c2ccc(-n3cc(-c4cccc(OC)c4)nn3)cc2)c1C(F)(F)F
106	CCOC(=O)c1cnn(-c2ccc(-c3cn(-c4cccc(O)c4)nn3)cc2)c1C(F)(F)F
93.2	CCOC(=O)c1cnn(-c2ccc(-c3cn(-c4ccc(N)cc4)nn3)cc2)c1C(F)(F)F

Activity [%]	Structure (SMILES)
77	CCOC(=O)c1cnn(-c2ccc(-c3cn(-c4ccccn4)nn3)cc2)c1C(F)(F)F
82.8	CCOC(=O)c1cnn(-c2ccc(-n3cc(-c4ccc(OC)c(OC)c4)nn3)cc2)c1C(F)(F)F
62.6	CCOC(=O)c1cnn(-c2ccc(-c3cn(-c4cccnc4)nn3)cc2)c1C(F)(F)F
113	CCOC(=O)c1cnn(-c2ccc(-c3cn(-c4cc(OC)cc(OC)c4)nn3)cc2)c1C(F)(F)F
107	CCOC(=O)c1cnn(-c2ccc(-n3cc(-c4ccncc4F)nn3)cc2)c1C(F)(F)F
75.3	CCOC(=O)c1cnn(-c2ccc(-n3cc(-c4cccc(NC(C)=O)c4)nn3)cc2)c1C(F)(F)F
68.1	CCOC(=O)c1cnn(-c2ccc(-n3cc(-c4ccncc4)nn3)cc2)c1C(F)(F)F
72.2	CCOC(=O)c1cnn(-c2ccc(-n3cc(CCCC(=O)O)nn3)cc2)c1C(F)(F)F
95.6	CCOC(=O)c1cnn(-c2ccc(-n3cc(-c4ccc(OC)cc4)nn3)cc2)c1C(F)(F)F
114	FC(F)(F)c1cc(C(F)(F)F)n(-c2ccc(-n3cc(-c4ccccn4)nn3)cc2)n1
91.7	CCOC(=O)c1cnn(-c2ccc(-n3cc(-c4ccc(N)cc4)nn3)cc2)c1C(F)(F)F
108	CCOC(=O)c1cnn(-c2ccc(-c3cn(-c4ccc(NC(C)=O)cc4)nn3)cc2)c1C(F)(F)F
117	CCOC(=O)c1cnn(-c2ccc(-c3cn(-c4cccc(NC(C)=O)c4)nn3)cc2)c1C(F)(F)F
83.1	CCOC(=O)c1cnn(-c2ccc(-c3cn(-c4ccc(OC)cc4)nn3)cc2)c1C(F)(F)F
101	CCOC(=O)c1cnn(-c2ccc(-c3cn(-c4ccc(Oc5ccccc5)cc4)nn3)cc2)c1C(F)(F)F
